Data set [1] can be described thus: Partition coefficient (logP). In kind it is physicochemical. As to conditions: octanol/water.
The target of data set [2] is Beta-3 adrenergic receptor (Rattus norvegicus) (UniProt P26255). Nature of the data set: Effective dose required for beta-3-adrenergic activity against free fatty acid (FFA) in rat plasma. In kind it is functional.
The target is the same in data set [3]. Nature of the data set: Beta-3-adrenergic activity measured by percent response against free fatty acid (FFA) in rat plasma at a dosage of 0.1 mg/kg. In kind it is functional, organism-based. More on the design: dose 0.1 mg/kg.
Another data set is filed under the species Mus musculus. Nature of the data set: The compound was evaluated for the % glucose lowering along with drug intake over the test period of 5-7 days in mice.
Data set [4] deals with Beta-3 adrenergic receptor (Rattus norvegicus) (UniProt P26255). Nature of the data set: Compound was evaluated for the beta-3-adrenergic activity by measuring % response against free fatty acid (FFA) in rat plasma at a dosage of 0.1 mg/kg. In kind it is functional, organism-based. Details: dose 0.1 mg/kg.

Beta-3 adrenergic receptor (Rattus norvegicus), sequence (P26255 whole entry): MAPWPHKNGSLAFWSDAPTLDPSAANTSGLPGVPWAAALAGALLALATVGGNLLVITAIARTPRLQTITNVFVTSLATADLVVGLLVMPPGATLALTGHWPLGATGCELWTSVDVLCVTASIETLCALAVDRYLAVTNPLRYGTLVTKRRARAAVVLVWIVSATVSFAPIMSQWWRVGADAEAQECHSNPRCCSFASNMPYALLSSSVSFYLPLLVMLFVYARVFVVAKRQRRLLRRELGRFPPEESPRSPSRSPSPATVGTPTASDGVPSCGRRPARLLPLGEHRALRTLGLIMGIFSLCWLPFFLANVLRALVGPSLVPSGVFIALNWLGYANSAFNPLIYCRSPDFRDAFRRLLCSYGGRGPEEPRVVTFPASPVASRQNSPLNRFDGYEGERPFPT

Regarding `C[C@H](Cc1ccc2c(c1)OC(C(=O)OCC(C)(C)C)(C(=O)OCC(C)(C)C)O2)NC[C@H](O)c1cccc(Cl)c1`, the logP in data set [1] was 2.16. Also, the values for the 50% effective dose (ED50) (in data set [2]; in the data set filed under Mus musculus) were 0.027 mg/kg and 0.028 mg/kg, respectively. In addition, in data set [3], the Response worked out at 134%.

For `C[C@H](Cc1ccc2c(c1)OC(C(=O)[O-])(C(=O)[O-])O2)NC[C@H](O)c1cccc(Cl)c1.[Na+].[Na+]`, the log partition coefficient (logP) in data set [1] came to 0.046. Moreover, the ED50 in data set [2] amounted to 0.24 mg/kg; in the data set listed under Mus musculus, 0.54 mg/kg. The Response in data set [4] came out at 2%.

Consider `C[C@H](Cc1ccc2c(c1)OC(C(=O)OCCc1ccccc1)(C(=O)OCCc1ccccc1)O2)NC[C@H](O)c1cccc(Cl)c1`, for which the ED50 in data set [2] was found to be 0.071 mg/kg; in the data set listed under Mus musculus, 0.156 mg/kg. The molecule further displayed a Response in data set [3] of 95%.

Take `CC(C)CCOC(=O)C1(C(=O)OCCC(C)C)Oc2ccc(C[C@@H](C)NC[C@H](O)c3cccc(Cl)c3)cc2O1`: the logP in data set [1] worked out at 3.77. Further, the ED50 in data set [2] is 0.026 mg/kg; in the data set filed under Mus musculus, 0.11 mg/kg. Moreover, the Response in data set [3] turned out to be 109%.

As to `C[C@H](Cc1ccc2c(c1)OC(C(=O)OCCC(C)(C)C)(C(=O)OCCC(C)(C)C)O2)NC[C@H](O)c1cccc(Cl)c1`, in data set [1], the logP was found to be 3.21. Moreover, the values for the ED50 (in data set [2]; in the data set listed under Mus musculus) were 0.08 mg/kg and 0.201 mg/kg, respectively. In addition, the Response in data set [3] stood at 71%.

On to `C[C@H](Cc1ccc2c(c1)OC(C(=O)OCC1CCC1)(C(=O)OCC1CCC1)O2)NC[C@H](O)c1cccc(Cl)c1`, for which the log partition coefficient (logP) in data set [1] is 2.34. Also, the ED50 in data set [2] amounted to 0.071 mg/kg; in the data set listed under Mus musculus it was 0.128 mg/kg. The Response in data set [3] came to 83%.

Consider `CC(C)OC(=O)C1(C(=O)OC(C)C)Oc2ccc(C[C@@H](C)NC[C@H](O)c3cccc(Cl)c3)cc2O1`, for which the logP in data set [1] is 1.29. The ED50 in data set [2] worked out at 0.061 mg/kg; in the data set listed under Mus musculus, 0.056 mg/kg. The Response in data set [3] stood at 100%.

For the molecule `C[C@H](Cc1ccc2c(c1)OC(C(=O)OCCc1cccs1)(C(=O)OCCc1cccs1)O2)NC[C@H](O)c1cccc(Cl)c1`, the ED50 in data set [2] came to 0.076 mg/kg; in the data set listed under Mus musculus, 0.208 mg/kg. In addition, the Response in data set [3] worked out at 77%.

For `CC(OC(=O)OC1CCCCC1)OC(=O)C1(C(=O)OC(C)OC(=O)OC2CCCCC2)Oc2ccc(C[C@@H](C)NC[C@H](O)c3cccc(Cl)c3)cc2O1` (stereo partly specified), the Response in data set [3] turned out to be 17%.

`C[C@H](Cc1ccc2c(c1)OC(C(=O)OCCc1ccsc1)(C(=O)OCCc1ccsc1)O2)NC[C@H](O)c1cccc(Cl)c1` had a Response in data set [3] of 80%.

Molecule `COCCOC(=O)C1(C(=O)O)Oc2ccc(C[C@@H](C)NC[C@H](O)c3cccc(Cl)c3)cc2O1` (stereo partly specified) yielded a Response in data set [3] of 85%.

Regarding `CCC(CC)COC(=O)C1(C(=O)O)Oc2ccc(C[C@@H](C)NC[C@H](O)c3cccc(Cl)c3)cc2O1` (stereo partly specified), the Response in data set [3] came out at 56%.

`C[C@H](Cc1ccc2c(c1)OC(C(=O)OCOC(=O)c1ccccc1)(C(=O)OCOC(=O)c1ccccc1)O2)NC[C@H](O)c1cccc(Cl)c1` yielded a Response in data set [3] of 31%.

`C[C@H](Cc1ccc2c(c1)OC(C(=O)OCCOc1cccc(Cl)c1)(C(=O)OCCOc1cccc(Cl)c1)O2)NC[C@H](O)c1cccc(Cl)c1` came in with a Response in data set [3] of 88%.

With `C[C@H](Cc1ccc2c(c1)OC(C(=O)OCOC(=O)C(C)(C)C)(C(=O)OCOC(=O)C(C)(C)C)O2)NC[C@H](O)c1cccc(Cl)c1`, the Response in data set [3] was 14%.

In data set [3], `C[C@H](Cc1ccc2c(c1)OC(C(=O)O)(C(=O)OCC[Si](C)(C)C)O2)NC[C@H](O)c1cccc(Cl)c1` (stereo partly specified) yielded a Response of 30%.

For the molecule `C[C@H](Cc1ccc2c(c1)OC(C(=O)OCCOCc1ccccc1)(C(=O)OCCOCc1ccccc1)O2)NC[C@H](O)c1cccc(Cl)c1`, the Response in data set [3] turned out to be 120%.

Molecule `CCCCCCOC(=O)C1(C(=O)O)Oc2ccc(C[C@@H](C)NC[C@H](O)c3cccc(Cl)c3)cc2O1` (stereo partly specified) showed a Response in data set [3] of 66%.

As to `C[C@H](Cc1ccc2c(c1)OC(C(=O)OC1CCCCC1)(C(=O)OC1CCCCC1)O2)NC[C@H](O)c1cccc(Cl)c1`, the Response in data set [3] was 59%.

The molecule `C[C@H](Cc1ccc2c(c1)OC(C(=O)OCCOc1ccc(Cl)cc1)(C(=O)OCCOc1ccc(Cl)cc1)O2)NC[C@H](O)c1cccc(Cl)c1` displayed a Response in data set [3] of 26%.

For `CC(C)CCC(=O)OCOC(=O)C1(C(=O)OCOC(=O)CCC(C)C)Oc2ccc(C[C@@H](C)NC[C@H](O)c3cccc(Cl)c3)cc2O1`, in data set [3], the Response amounted to 37%.

The molecule `Cc1cccc(CCOC(=O)C2(C(=O)OCCc3cccc(C)c3)Oc3ccc(C[C@@H](C)NC[C@H](O)c4cccc(Cl)c4)cc3O2)c1` returned a Response in data set [3] of 39%.

In data set [3], `C[C@H](Cc1ccc2c(c1)OC(C(=O)OCC1CCCCO1)(C(=O)OCC1CCCCO1)O2)NC[C@H](O)c1cccc(Cl)c1` (stereo partly specified) showed a Response of 11%.

In turn, `C[C@H](Cc1ccc2c(c1)OC(C(=O)O)(C(=O)OCC(C)(C)C)O2)NC[C@H](O)c1cccc(Cl)c1` (stereo partly specified) had a Response in data set [3] of 81%.

For the molecule `C[C@H](Cc1ccc2c(c1)OC(C(=O)OCC1CC1)(C(=O)OCC1CC1)O2)NC[C@H](O)c1cccc(Cl)c1`, the Response in data set [3] came out at 99%.

With `C[C@H](Cc1ccc2c(c1)OC(C(=O)OCC(C)(C)Cc1ccccc1)(C(=O)OCC(C)(C)Cc1ccccc1)O2)NC[C@H](O)c1cccc(Cl)c1`, in data set [3], the Response was found to be 25%.

In data set [3], `CC(=O)OCOC(=O)C1(C(=O)OCOC(C)=O)Oc2ccc(C[C@@H](C)NC[C@H](O)c3cccc(Cl)c3)cc2O1` yielded a Response of 39%.

Take `COCCOCCOC(=O)C1(C(=O)OCCOCCOC)Oc2ccc(C[C@@H](C)NC[C@H](O)c3cccc(Cl)c3)cc2O1`: the Response in data set [3] came out at 71%.

The molecule `CCOC(=O)C(C)OC(=O)C1(C(=O)OC(C)C(=O)OCC)Oc2ccc(C[C@@H](C)NC[C@H](O)c3cccc(Cl)c3)cc2O1` (stereo partly specified) yielded a Response in data set [3] of 9%.

Turning to `CCC(CC)OC(=O)C1(C(=O)OC(CC)CC)Oc2ccc(C[C@@H](C)NC[C@H](O)c3cccc(Cl)c3)cc2O1`, the Response in data set [3] was found to be 63%.

For the molecule `C[C@H](Cc1ccc2c(c1)OC(C(=O)O)(C(=O)OCCOCc1ccccc1)O2)NC[C@H](O)c1cccc(Cl)c1` (stereo partly specified), the Response in data set [3] is 109%.

`C[C@H](Cc1ccc2c(c1)OC(C(=O)OCOC(=O)C1CCCCC1)(C(=O)OCOC(=O)C1CCCCC1)O2)NC[C@H](O)c1cccc(Cl)c1`: in data set [3], the Response stood at 19%.

In data set [3], `C[C@H](Cc1ccc2c(c1)OC(C(=O)OCCCCCc1ccccc1)(C(=O)OCCCCCc1ccccc1)O2)NC[C@H](O)c1cccc(Cl)c1` had a Response of 93%.

Consider `C[C@H](Cc1ccc2c(c1)OC(C(=O)OCC1CCCO1)(C(=O)OCC1CCCO1)O2)NC[C@H](O)c1cccc(Cl)c1` (stereo partly specified), for which, in data set [3], the Response came to 24%.

The molecule `CCCOC(=O)COC(=O)C1(C(=O)OCC(=O)OCCC)Oc2ccc(C[C@@H](C)NC[C@H](O)c3cccc(Cl)c3)cc2O1` returned a Response in data set [3] of 30%.

`C[C@H](Cc1ccc2c(c1)OC(C(=O)OCCCOCc1ccccc1)(C(=O)OCCCOCc1ccccc1)O2)NC[C@H](O)c1cccc(Cl)c1`: in data set [3], the Response stood at 83%.

Regarding `C[C@H](Cc1ccc2c(c1)OC(C(=O)OCC1CCCCC1)(C(=O)OCC1CCCCC1)O2)NC[C@H](O)c1cccc(Cl)c1`, the Response in data set [3] turned out to be 22%.

The molecule `CCOC(=O)C1(C(=O)OCC)Oc2ccc(C[C@@H](C)NC[C@H](O)c3cccc(Cl)c3)cc2O1` returned a logP in data set [1] of 0.35. The values for the ED50 (in data set [2]; in the data set listed under Mus musculus) were 0.034 mg/kg and 0.1 mg/kg, respectively. In data set [3], this molecule yielded a Response of 114%.

`COC(=O)C(C)OC(=O)C1(C(=O)OC(C)C(=O)OC)Oc2ccc(C[C@@H](C)NC[C@H](O)c3cccc(Cl)c3)cc2O1` (stereo partly specified): in data set [3], the Response amounted to 42%.

For `C[C@H](Cc1ccc2c(c1)OC(C(=O)O)(C(=O)OCC1CCCCC1)O2)NC[C@H](O)c1cccc(Cl)c1` (stereo partly specified), in data set [3], the Response is 47%.

`CCC(=O)OCOC(=O)C1(C(=O)OCOC(=O)CC)Oc2ccc(C[C@@H](C)NC[C@H](O)c3cccc(Cl)c3)cc2O1` showed a Response in data set [3] of 10%.

`COc1ccc(COC(=O)C2(C(=O)OCc3ccc(OC)cc3)Oc3ccc(C[C@@H](C)NC[C@H](O)c4cccc(Cl)c4)cc3O2)cc1`: the Response in data set [3] is 8%.

In data set [3], `C[C@H](Cc1ccc2c(c1)OC(C(=O)OCCOC(C)(C)C)(C(=O)OCCOC(C)(C)C)O2)NC[C@H](O)c1cccc(Cl)c1` yielded a Response of 14%.

Turning to `C[C@H](Cc1ccc2c(c1)OC(C(=O)OCCOc1ccccc1)(C(=O)OCCOc1ccccc1)O2)NC[C@H](O)c1cccc(Cl)c1`, the Response in data set [3] was determined as 2%.

On to `C[C@H](Cc1ccc2c(c1)OC(C(=O)OCCCc1ccccc1)(C(=O)OCCCc1ccccc1)O2)NC[C@H](O)c1cccc(Cl)c1`, for which, in data set [3], the Response was determined as 61%.

`CCCCOCCOC(=O)C1(C(=O)O)Oc2ccc(C[C@@H](C)NC[C@H](O)c3cccc(Cl)c3)cc2O1` (stereo partly specified) registered a Response in data set [3] of 83%.

The logP is the decadic logarithm of the partition coefficient of the neutral form, usually between octanol and water. A lower logP goes with lower lipophilicity. As usually defined, the ED50 is the dose at which the effect has come halfway, by size or by number of responders.

Values taken from ChEMBL document CHEMBL1131783, “Prodrugs of CL316243: a selective beta3-adrenergic receptor agonist for treating obesity and diabetes” (Bioorg Med Chem Lett, 1999).
